Results from US12029725B2 (priority 2019, dated 2024).
“Also recorded” adds a separate entry of the source. Like-named read-outs stand apart in the source and are kept apart here.

Experiments:
[1] = system: subjects with moderate to severe osteoarthritis of the knee; settings: for Procedure-associated pain (post-procedural pain and injection site pain), patients reporting: RTX patients; for Procedure-associated pain reported as mild / Procedure-associated pain reported as moderate: RTX treated patients
[2] = Pharmacokinetics of RTX after intra-articular injection in the Phase 1b study; format: in vivo, human; settings: for Number of RTX subjects with quantifiable PK / Number of subjects with BQL of RTX: 6 subjects with PK measured; for Cmax / AUC(0-t): human, in vivo, other: intra-articular injection
[3] = system: pain due to moderate to severe osteoarthritis of the knee; test: Phase 1b double-blind study of intra-articular resiniferatoxin versus placebo: efficacy (WOMAC and NPRS pain scores); format: in vivo, human; settings: for Patient reported WOMAC A1 and NPRS pain scores: all dose levels
Description: The study, described as “Phase 1b double-blind study assesses safety and preliminary efficacy of intra-articular administration of resiniferatoxin versus placebo for the treatment of pain due to moderate to severe osteoarthritis of the knee,” was performed.
Subjects with moderate to severe osteoarthritis diagnosed based on ACR diagnostic criteria and X-ray imaging were enrolled in a phase 1b double-blind study to assess the safety, tolerability and preliminary efficacy of intra-articular administration of resiniferatoxin or placebo for the treatment of moderate to severe pain due to osteoarthritis of the knee. Patients met the following criteria: (1) baseline pain score in the index knee (WOMAC pain subscale question A1) of ≥5 but ≤9 during four weeks prior to enrollment; (2) mean NPRS score of ≥5 but ≤9 during 8 of 10 days prior to enrollment; and (3) pain lasted for at least 6 months prior to enrollment.
As of August 2019, the enrollment of all planned dose level cohorts was completed. 40 patients have enrolled in these dose-escalation cohorts, 30 receiving RTX and 10 receiving placebo (multicenter, randomized, double-blind, placebo controls). In each cohort, six patients received intraarticular RTX and two received a saline control (placebo arm). 69% are female and 31% are male. The median age is 62 (range 44-83), and the baseline NPRS A1 score was mean 6.5 (S.D. 1.5).
The patients were treated with a one-time intraarticular dose of resiniferatoxin (RTX) or saline placebo at escalating dose level cohorts of 5 μg, 12.5 μg, 20 μg and 30 μg in 5 or 10 mL in dose escalation cohorts. For each 8-patient cohort, the first patient was considered a sentinel patient and received open-label drug. Upon confirmation of safety in the sentinel patient, the remaining 7 patients in the cohort were enrolled in a blinded fashion, 2 patients receiving placebo and 5 patients receiving RTX. After confirmation of safety at each dose level, the next higher dose level was opened for enrollment. Patients were followed for safety and efficacy over a 12-week period. Patients had the option to provide additional follow-up to 52 weeks. Efficacy was assessed using the patient reported WOMAC pain scores and NPRS pain scores. As per protocol, the treatment assignment could be unblinded at week 12.

[4] = 30 μg, Cohort 6, 30 μg/5 or 10 ml, subject with quantifiable PK

SMILES: C=C(C)[C@]12C[C@@H](C)[C@@]34O[C@](Cc5ccccc5)(O[C@@H]1[C@@H]3C=C(COC(=O)Cc1ccc(O)c(OC)c1)C[C@]1(O)C(=O)C(C)=C[C@@H]41)O2 [RTX, resiniferatoxin]
- DMC assessment ([1]; Cohort 1, 5 μg): No DLTs
- Notable AE's ([1]; Cohort 1, 5 μg): None
- DMC assessment ([1]; Cohort 2, 12.5 μg): No DLTs
- Notable AE's ([1]; Cohort 2, 12.5 μg): None
- DMC assessment ([1]; Cohort 3, 12.5 μg (in 10 ml)): No DLTs
- Notable AE's ([1]; Cohort 3, 12.5 μg (in 10 ml)): None
- DMC assessment ([1]; Cohort 4, 20 μg): No DLTs
- Notable AE's ([1]; Cohort 4, 20 μg): None
- DMC assessment ([1]; Cohort 5, 30 μg): No DLTs
- Notable AE's ([1]; Cohort 5, 30 μg): None
- TEAE Areflexia, Mild: frequency ([1]; RTX All Cohorts (N = 57)): (3.5%)
- TEAE Areflexia, Mild: number of subjects ([1]; RTX All Cohorts (N = 57)): 2
- TEAE Areflexia, Moderate: frequency ([1]; RTX All Cohorts (N = 57)): (3.5%)
- TEAE Areflexia, Moderate: number of subjects ([1]; RTX All Cohorts (N = 57)): 2
- TEAE Arthralgia, Mild: frequency ([1]; RTX All Cohorts (N = 57)): (7.0%)
- TEAE Arthralgia, Mild: number of subjects ([1]; RTX All Cohorts (N = 57)): 4
- TEAE Arthralgia, Moderate: frequency ([1]; RTX All Cohorts (N = 57)): (1.8%)
- TEAE Arthralgia, Moderate: number of subjects ([1]; RTX All Cohorts (N = 57)): 1
- TEAE EOG QTc prolonged, Mild: frequency ([1]; RTX All Cohorts (N = 57)): (5.3%)
- TEAE EOG QTc prolonged, Mild: number of subjects ([1]; RTX All Cohorts (N = 57)): 3
- TEAE Headache, Mild: frequency ([1]; RTX All Cohorts (N = 57)): (5.3%)
- TEAE Headache, Mild: number of subjects ([1]; RTX All Cohorts (N = 57)): 3
- TEAE Hypertension, Mild: frequency ([1]; RTX All Cohorts (N = 57)): (7.0%)
- TEAE Hypertension, Mild: number of subjects ([1]; RTX All Cohorts (N = 57)): 4
- TEAE Hypertension, Moderate: frequency ([1]; RTX All Cohorts (N = 57)): (7.0%)
- TEAE Hypertension, Moderate: number of subjects ([1]; RTX All Cohorts (N = 57)): 4
- TEAE Hypoesthesia, Mild: frequency ([1]; RTX All Cohorts (N = 57)): (8.8%)
- TEAE Hypoesthesia, Mild: number of subjects ([1]; RTX All Cohorts (N = 57)): 5
- TEAE Nausea, Mild: frequency ([1]; RTX All Cohorts (N = 57)): (31.6%)
- TEAE Nausea, Mild: number of subjects ([1]; RTX All Cohorts (N = 57)): 18
- TEAE Nausea, Moderate: frequency ([1]; RTX All Cohorts (N = 57)): (3.5%)
- TEAE Nausea, Moderate: number of subjects ([1]; RTX All Cohorts (N = 57)): 2
- TEAE Procedural pain, Mild: frequency ([1]; RTX All Cohorts (N = 57)): (64.9%)
- TEAE Procedural pain, Mild: number of subjects ([1]; RTX All Cohorts (N = 57)): 37
- TEAE Procedural pain, Moderate: frequency ([1]; RTX All Cohorts (N = 57)): (26.3%)
- TEAE Procedural pain, Moderate: number of subjects ([1]; RTX All Cohorts (N = 57)): 15
- TEAE Vomiting, Mild: frequency ([1]; RTX All Cohorts (N = 57)): (14.0%)
- TEAE Vomiting, Mild: number of subjects ([1]; RTX All Cohorts (N = 57)): 8
- TEAE Vomiting, Moderate: frequency ([1]; RTX All Cohorts (N = 57)): (3.5%)
- TEAE Vomiting, Moderate: number of subjects ([1]; RTX All Cohorts (N = 57)): 2
- Dose-limiting toxicities ([1]; all cohorts): No dose-limiting toxicities
- Maximum tolerated dose ([1]; all cohorts): not identified
- Relationship between adverse events and dose ([1]; all cohorts): no apparent relationship
- Procedure-associated pain (post-procedural pain and injection site pain), patients reporting ([1]; all cohorts): 91%
- Procedure-associated pain reported as mild ([1]; all cohorts): 65%
- Procedure-associated pain reported as moderate ([1]; all cohorts): 26%
- Dose-limiting toxicities ([1]; dose escalation cohorts (N=40)): No dose-limiting toxicities
- Maximum tolerated dose ([1]; dose escalation cohorts (N=40)): not identified
- Relationship between adverse events and dose ([1]; dose escalation cohorts (N=40)): no apparent relationship
- Procedure-associated pain (post-procedural pain and injection site pain), patients reporting ([1]; dose escalation cohorts (N=40)): 100%
- Procedure-associated pain reported as mild ([1]; dose escalation cohorts (N=40)): 55%
- Procedure-associated pain reported as moderate ([1]; dose escalation cohorts (N=40)): 45%
- Adverse events of interest ([1]; initial results, any dose group): nor adverse events of interest noted
- Dose limiting toxicities (DLTs) ([1]; initial results, any dose group, to date): No dose limiting toxicities
- Number of RTX subjects with quantifiable PK ([2]; Cohort 1, 5 μg/5 ml): 1
- Number of subjects with BQL of RTX ([2]; Cohort 1, 5 μg/5 ml): 5
- Number of RTX subjects with quantifiable PK ([2]; Cohort 4, 12.5 μg/5 ml): 0
- Number of subjects with BQL of RTX ([2]; Cohort 4, 12.5 μg/5 ml): 6
- Number of RTX subjects with quantifiable PK ([2]; Cohort 4a, 12.5 μg/10 ml): 1
- Number of subjects with BQL of RTX ([2]; Cohort 4a, 12.5 μg/10 ml): 5
- Number of RTX subjects with quantifiable PK ([2]; Cohort 5, 20 μg/5 ml): 2
- Number of subjects with BQL of RTX ([2]; Cohort 5, 20 μg/5 ml): 4
- Number of RTX subjects with quantifiable PK ([2]; Cohort 6, 30 μg/5 or 10 ml): 1
- Number of subjects with BQL of RTX ([2]; Cohort 6, 30 μg/5 or 10 ml): 5
- Detectability of RTX (pharmacokinetic data) ([2]; all PK cohorts, intra-articular injection): undetectable in most patients
- Cmax ([2]; 5 μg, Cohort 1, 5 μg/5 ml, subject with quantifiable PK): 0.121 ng/mL
- AUC(0-t) ([2]; 5 μg, Cohort 1, 5 μg/5 ml, subject with quantifiable PK, read-out: AUC (0-6 hr)): 0.509 ng·h/mL
- Cmax ([2]; 12.5 μg, Cohort 4a, 12.5 μg/10 ml, subject with quantifiable PK): 0.103 ng/mL
- AUC(0-t) ([2]; 12.5 μg, Cohort 4a, 12.5 μg/10 ml, subject with quantifiable PK, read-out: AUC (0-6 hr)): 0.146 ng·h/mL
- Cmax ([2]; 20 μg, Cohort 5, 20 μg/5 ml, first subject with quantifiable PK): 0.071 ng/mL
- AUC(0-t) [2, 4]: 0.0854 ng·h/mL
- Cmax [2, 4]: 0.0878 ng/mL
- Pain at walking (10 point WOMAC pain scale), mean pain score lower versus control ([3]; 5 μg RTX, Day 84): 4.7 points
- WOMAC A-C pain index, least squares mean difference versus placebo (MMRM) ([3]; 12.5 μg dose, 12 weeks, p=0.016, N=6): −14.20
- WOMAC A1 score, least squares mean difference versus placebo (MMRM) ([3]; 12.5 μg dose, 12 weeks, p=0.029, N=6): −2.70
- NPRS score, least squares mean difference versus placebo (MMRM) ([3]; 12.5 μg dose, 12 weeks, p=0.051, N=6): −2.29
- Weekly average NPRS pain score, mean change (standard deviation) from baseline to week 12 ([3]; Cohort 4, 12.5 μg/5 ml, FIG. 2): −5.30 (1.94)
- Weekly average WOMAC question A1, mean change (standard deviation) from baseline to week 12 ([3]; Cohort 4, 12.5 μg/5 ml, FIG. 3): −5.67 (1.51)
- Patient reported WOMAC A1 and NPRS pain scores ([3]; all cohorts incl. volume and dose expansion cohorts): reduction
- Improvements in patients of all dose groups ([3]; all dose groups, ongoing trial): rapid and sustainable improvements
- Patient reported WOMAC A1 and NPRS pain scores ([3]; dose escalation cohorts (N=40), available unblinded data): reduction
- Sustained clinical benefits / pain reduction sustained over time ([3]; lowest dose (5 μg), determined at 84 days): sustained clinical benefits; also recorded: sustained over time
- Onset of pain relief ([3]; lowest dose tested, single 5 μg RTX injection into the knee joint): day following injection; also recorded: the day following drug administration
- Patients reporting positive clinical benefits in pain reduction ([3]; patients treated with the active drug, to date): a majority
- Patients achieving >70% reduction in pain versus baseline, NPRS score ([3]; pooled RTX-treated patients): 41%
- Patients achieving >70% reduction in pain versus baseline, WOMAC A1 score ([3]; pooled RTX-treated patients): 54%
- Weekly average NPRS pain score, change from baseline to week 12, difference versus pooled placebo ([3]; week 12, range over dose level cohorts): −0.34 to −2.29
- WOMAC question A1 (pain on walking on flat surface), least squares mean difference in change from baseline relative to placebo ([3]; week 12, range over dose level cohorts, 9 placebo, 28 RTX): −0.38 to −2.70 points
